Measurements as given in patent publication US12264173B2 (GILEAD SCIENCES, INC., priority 2020, dated 2025).
Read-outs that look alike come from different tables or passages of the source.

Key:
Format in all cases: cell-based
DENV2 replicon = assay: DENV-2 Huh-7 Rep EC50 (replicon luminescence); conditions: Dengue virus, DENV2, Huh-7, 48 h
How it was run: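 Huh-7 cells carrying a DENV2 replicon, 5,000 cells/well, were incubated with dosed compounds for 48 h at 37° C. EnduRen live-cell substrate was added 1.5 h before luminescence reading. EC50 came from dose-response against DMSO-only wells.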

RSV A2 = assay: RSV NHBE EC50 (RSV A2 antiviral assay in NHBE cells); conditions: human respiratory syncytial virus, NHBE, read-out: RSV NHBE EC50
How it was run: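 Antiviral activity against RSV A2 was determined in NHBE cells used within 6 passages, with cell viability quantified by CellTiter-Glo after a 4-day infection.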

HRV16 = HRV16 HeLa EC50 (cytopathic effect in H1-HeLa cells); conditions: read-out: HRV16 HeLa EC50
How it was run: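 H1-HeLa cells seeded one day before, given 3-fold serial compound dilutions in triplicate just prior to infection with pre-titrated virus. Incubated 96 h at 33 °C/5% CO2; protection from cytopathic effect read as viability by CellTiter-Glo luminescence, normalised to infected untreated (0%) and uninfected (100%) controls.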

RSV strain A2 = assay: microbe, parasite or virus in culture; conditions: human respiratory syncytial virus, read-out: RSV HEp-2 EC50
How it was run: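 Cytopathic-effect protection assay: HEp-2 cells (50,000/mL) infected with pre-titered RSV A2 onto 3-fold serial compound dilutions, incubated 4 days at 37° C. Cell viability read by CellTiter-Glo luminescence; percent inhibition derived against 0% and 100% virus-inhibition controls.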

[1] = 96 h, Table 3, NHBE cells, RSV A2, 4 days
[2] = 96 h, Table 3, H1-HeLa cells, 96 h
[3] = HEp-2, 96 h, Table 3, HEp-2 cells, RSV A2, 4 days
[4] = read-out: DENV-2 REP Huh7 EC50, Table 3, Huh-7 DENV2 replicon cells, 48 hours

Compound	EC50 (DENV2 replicon; read-out: DENV-2 REP Huh7 EC50) [µM]	EC50 (RSV A2; [1]) [µM]	EC50 (HRV16; [2]) [µM]	EC50 (RSV strain A2; [3]) [µM]	EC50 (DENV2 replicon; [4]) [µM]	EC50 (RSV A2; Table 5 comparative activity, 2',3'-OH vs -OC(O)iPr) [µM]	EC50 (HRV16; HeLa, Table 5 comparative activity, 2',3'-OH vs -OC(O)iPr) [µM]	EC50 (RSV strain A2; HEp-2, Table 5 comparative activity, 2',3'-OH vs -OC(O)iPr) [µM]
CC(=O)O[C@H]1[C@H](c2ccc3c(N)ncnn23)O[C@](C#N)(COP(=O)(N[C@@H](C)C(=O)OCc2ccccc2)Oc2ccccc2)[C@H]1OC(C)=O (stereo partly drawn) [Example 126, (2R,3S,4S,5S)-5-(4-aminopyrrolo[2,1-f][1,2,4]triazin-7-yl)-2-((((((S)-1-(benzyloxy)-1-oxopropan-2-yl)amino)(phenoxy)phosphoryl)oxy)methyl)-2-cyanotetrahydrofuran-3,4-diyl diacetate]	16	0.045	0.514	0.121	–	–	–	–
COC(=O)[C@H](C)NP(=O)(N[C@@H](C)C(=O)OC)OC[C@@]1(C#N)O[C@@H](c2ccc3c(N)ncnn23)[C@H](OC(C)=O)[C@@H]1OC(C)=O [Example 127]	–	3.36	> 50	8.06	> 50	–	–	–
COC(=O)[C@H](C)NP(=O)(N[C@@H](C)C(=O)OC)OC[C@@]1(C#N)O[C@@H](c2ccc3c(NC(C)=O)ncnn23)[C@H](OC(C)=O)[C@@H]1OC(C)=O [Example 128]	–	> 4.14	> 50	18.8	> 50	–	–	–
COC(=O)[C@H](C)NP(=O)(OC[C@@]1(C#N)O[C@@H](c2ccc3c(N)ncnn23)[C@H](OC(C)=O)[C@@H]1OC(C)=O)Oc1ccccc1 (stereo partly drawn) [Example 129, (2R,3S,4S,5S)-5-(4-aminopyrrolo[2,1-f][1,2,4]triazin-7-yl)-2-cyano-2-((((((S)-1-methoxy-1-oxopropan-2-yl)amino)(phenoxy)phosphoryl)oxy)methyl)tetrahydrofuran-3,4-diyl diacetate]	15.5	0.077	1.11	0.154	–	–	–	–
COC(=O)[C@H](C)NP(=O)(OC[C@@]1(C#N)O[C@@H](c2ccc3c(NC(C)=O)ncnn23)[C@H](OC(C)=O)[C@@H]1OC(C)=O)Oc1ccccc1 (stereo partly drawn) [Example 132, (2R,3S,4S,5S)-5-(4-acetamidopyrrolo[2,1-f][1,2,4]triazin-7-yl)-2-cyano-2-((((((S)-1-methoxy-1-oxopropan-2-yl)amino)(phenoxy)phosphoryl)oxy)methyl) tetrahydrofuran-3,4-diyl diacetate]	29.4	0.145	3.48	0.434	–	–	–	–
CC(=O)O[C@H]1[C@H](c2ccc3c(N)ncnn23)O[C@](C#N)(COP(=O)(N[C@@H](C)C(=O)OC(C)C)N[C@@H](C)C(=O)OC(C)C)[C@H]1OC(C)=O [Example 133, ((2R,3S,4R,5S)-5-(4-aminopyrrolo[2,1-f][1,2,4]triazin-7-yl)-2-cyano-3,4-diacetatetetrahydrofuran-2-yl)methyl bis-isopropyl L-alaninate phosphate]	–	> 4.07	> 48.9	18.1	> 50	–	–	–
CCOC(=O)[C@H](C)NP(=O)(N[C@@H](C)C(=O)OCC)OC[C@@]1(C#N)O[C@@H](c2ccc3c(N)ncnn23)[C@H](OC(C)=O)[C@@H]1OC(C)=O [Example 134, ((2R,3S,4R,5S)-5-(4-aminopyrrolo[2,1-f][1,2,4]triazin-7-yl)-2-cyano-3,4-diacetatetetrahydrofuran-2-yl)methyl bis-ethyl L-alaninate phosphate]	–	1.59	> 50	7.34	> 50	–	–	–
CCC(=O)O[C@H]1[C@H](c2ccc3c(N)ncnn23)O[C@](C#N)(COP(=O)(N[C@@H](C)C(=O)OC2CCN(CC)CC2(F)F)Oc2ccccc2)[C@H]1OC(=O)CC (stereo partly drawn) [Example 135, (2R,3S,4S,5S)-5-(4-Aminopyrrolo[2,1-f][1,2,4]triazin-7-yl)-2-cyano-2-((((((2S)-1-((1-ethyl-3,3-difluoropiperidin-4-yl)oxy)-1-oxopropan-2-yl)amino)(phenoxy)phosphoryl)oxy)methyl)tetrahydrofuran-3,4-diyl dipropionate]	30.6	0.033	1.08	0.738	–	–	–	–
CC(C)C(=O)O[C@H]1[C@H](c2ccc3c(N)ncnn23)O[C@](C#N)(COP(=O)(N[C@@H](C)C(=O)O[C@H]2CC[C@H](N)CC2)Oc2ccccc2)[C@H]1OC(=O)C(C)C (stereo partly drawn) [Example 136, (2R,3S,4S,5S)-2-((((((S)-1-(((1r,4S)-4-aminocyclohexyl)oxy)-1-oxopropan-2-yl)amino)(phenoxy)phosphoryl)oxy)methyl)-5-(4-aminopyrrolo[2,1-f][1,2,4]triazin-7-yl)-2-cyanotetrahydrofuran-3,4-diyl bis(2-methylpropanoate)]	38.2	0.244	15	2.95	–	–	–	–
CCOC(=O)[C@H](C)NP(=O)(N[C@@H](C)C(=O)OCC)OC[C@@]1(C#N)O[C@@H](c2ccc3c(N)ncnn23)[C@H](OC(=O)C(C)C)[C@@H]1OC(=O)C(C)C [Example 137, ((2R,3S,4R,5S)-5-(4-aminopyrrolo[2,1-f][1,2,4]triazin-7-yl)-2-cyano-3,4-diisobutylatetetrahydrofuran-2-yl)methyl bis-ethyl L-alaninate phosphate]	–	0.065	1.04	0.467	38.4	0.065	1.04	0.467
COC(=O)[C@H](C)NP(=O)(OC[C@@]1(C#N)O[C@@H](c2ccc3c(N)ncnn23)[C@H](OC(=O)C(C)C)[C@@H]1OC(=O)C(C)C)Oc1ccccc1 (stereo partly drawn) [Example 138, (2R,3S,4S,5S)-5-(4-aminopyrrolo[2,1-f][1,2,4]triazin-7-yl)-2-cyano-2-((((((S)-1-methoxy-1-oxopropan-2-yl)amino)(phenoxy)phosphoryl)oxy)methyl)tetrahydrofuran-3,4-diyl bis(2-methylpropanoate)]	5.2	0.017	0.101	0.063	–	–	–	–
CCC(=O)O[C@H]1[C@H](c2ccc3c(N)ncnn23)O[C@](C#N)(COP(=O)(N[C@@H](C)C(=O)OC)Oc2ccccc2)[C@H]1OC(=O)CC (stereo partly drawn) [Example 141, (2R,3S,4S,5S)-5-(4-aminopyrrolo[2,1-f][1,2,4]triazin-7-yl)-2-cyano-2-((((((S)-1-methoxy-1-oxopropan-2-yl)amino)(phenoxy)phosphoryl)oxy)methyl)tetrahydrofuran-3,4-diyl dipropionate]	7.49	0.023	0.253	0.08	–	–	–	–
COC(=O)[C@H](C)NP(=O)(N[C@@H](C)C(=O)OC)OC[C@@]1(C#N)O[C@@H](c2ccc3c(N)ncnn23)[C@H](OC(=O)C(C)C)[C@@H]1OC(=O)C(C)C [Example 149, ((2R,3S,4R,5S)-5-(4-aminopyrrolo[2,1-f][1,2,4]triazin-7-yl)-2-cyano-3,4-diisobutylatetetrahydrofuran-2-yl)methyl bis-methyl L-alaninate phosphate]	–	0.084	3.19	1.15	> 35.8	–	–	–
COC(=O)[C@H](C)NP(=O)(N[C@@H](C)C(=O)OC)OC[C@@]1(C#N)O[C@@H](c2ccc3c(NC(=O)C(C)C)ncnn23)[C@H](OC(=O)C(C)C)[C@@H]1OC(=O)C(C)C [Example 150, ((2R,3S,4R,5S)-5-(4-isobutyramidopyrrolo[2,1-f][1,2,4]triazin-7-yl)-2-cyano-3,4-diisobutylatetetrahydrofuran-2-yl)methyl bis-methyl L-alaninate phosphate]	–	0.07	3.48	1.4	> 50	–	–	–
COCC(=O)O[C@H]1[C@H](c2ccc3c(N)ncnn23)O[C@](C#N)(CO[P@@](=O)(N[C@@H](C)C(=O)OC(C)C)Oc2ccccc2)[C@H]1OC(=O)COC [Example 151, (2R,3S,4S,5S)-5-(4-aminopyrrolo[2,1-f][1,2,4]triazin-7-yl)-2-cyano-2-((((S)-(((S)-1-isopropoxy-1-oxopropan-2-yl)amino)(phenoxy)phosphoryl)oxy)methyl) tetrahydrofuran-3,4-diyl bis(2-methoxyacetate)]	19.5	0.751	0.946	0.226	–	–	–	–
CC(C)OC(=O)[C@H](C)N[P@](=O)(OC[C@@]1(C#N)O[C@@H](c2ccc3c(N)ncnn23)[C@H](OC(=O)CC(C)(C)O)[C@@H]1OC(=O)CC(C)(C)O)Oc1ccccc1 [Example 152, (2R,3S,4S,5S)-5-(4-aminopyrrolo[2,1-f][1,2,4]triazin-7-yl)-2-cyano-2-((((S)-(((S)-1-isopropoxy-1-oxopropan-2-yl)amino)(phenoxy)phosphoryl)oxy)methyl) tetrahydrofuran-3,4-diyl bis(3-hydroxy-3-methylbutanoate)]	> 50	> 5	> 50	2.93	–	–	–	–
